In patent US8778973B2, “Alkene oxindole derivatives” (Hoffmann-La Roche Inc., priority 2009, dated 2014) one finds EC50 data, which are given here for 26 molecules.

This experiment deals with Recombinant human AMPK proteins (α1β1γ1, α2β1γ1, α1(1-335), α1(1-394) or α2(1-394)). Nature of the experiment: Scintillation Proximity Assay (SPA) of AMPK activation. It is filed as biochemical. Conditions: activator concentration for 50% of maximal enzyme activity; 50 nM recombinant AMPK, 2 μM ATP, 30° C., 2 hr. As for the experimental part: Recombinant human AMPK α1β1γ1, α2β1γ1 or AMPK α subunit truncations α1(1-335), α1(1-394) and α2(1-394) were constructed, expressed and purified as described previously (Pang, T., Zhang, Z. S., Gu, M., Qiu, B. Y., Yu, L. F., Cao, P. R., Shao, W., Su, M. B., Li, J. Y., Nan, F. J., and Li, J. (2008)). Rat liver AMPK heterotrimer enzyme was obtained from Upstate (Billerica, Mass., U.S.A.).
Scintillation Proximity Assay
Before the Scintillation Proximity Assay (SPA) assay, 200 nM recombinant AMPK proteins (α1β1γ1, α2β1γ1, α1(1-335), α1(1-394) or α2(1-394)) were fully phosphorylated as described previously (Pang et al., 2008). SPA reactions were performed in 96-well plates at a final volume of 501 containing 20 mM Tris-HCl pH 7.5, 5 mM MgCl2, 1 mM DTT, 2 μM biotin-SAMS, 2 μM ATP, 0.2 μCi/well [γ-^33P]ATP, and various amount of activator. Reactions were initiated by the addition of 50 nM recombinant AMPK proteins to the reaction solutions and incubated at 30° C. for 2 hr. After that, reactions were terminated by the addition of 401 stop solution containing 80 μg streptavidin-coated SPA beads per well, 50 mM EDTA, 0.1% Triton X-100 in PBS, pH 7.5 and incubated for 1 hr. Finally, a 160 ul suspension solution containing 2.4 M CsCl, 50 mM EDTA, and 0.1% Triton X-100 in PBS (pH 7.5) was added to the reaction solution to suspend SPA beads completely. SPA signals were determined with a Wallac MicroBeta plate counter (PerkinElmer) 30 min later for calculation of the amount of product formed. The amount of products formed in 2 hr was plotted against activator concentrations to determine the effective concentration of the activator (EC50) required for 50% of maximal enzyme activity.
Compounds as described above have EC50 values between 0.5 uM and 50 uM, preferred compounds have EC50 values between 0.5 uM and 10 uM, particularly preferred compounds have EC50 values between 0.5 uM and 1 uM.

For `COC(=O)c1cccc(CN2C(=O)/C(=C(\c3ccccc3)c3cccc(Br)c3)c3ccccc32)c1` [Example 27, 3-{3-[1-(3-Bromo-phenyl)-1-phenyl-meth-(E)-ylidene]-2-oxo-2,3-dihydro-indol-1-ylmethyl}-benzoic acid methyl ester], the EC50 stood at 2730 nM.

`COC(=O)c1cccc(CN2C(=O)/C(=C(\c3ccccc3)c3ccccc3SC)c3ccccc32)c1` [Example 28, 3-{3-[1-(2-Methylsulfanyl-phenyl)-1-phenyl-meth-(E)-ylidene]-2-oxo-2,3-dihydro-indol-1-ylmethyl}-benzoic acid methyl ester]: the EC50 was found to be 800 nM.

On to `COC(=O)c1cccc(CN2C(=O)/C(=C(\c3ccccc3)c3ccc(Cl)cc3)c3cc(F)cc(Cl)c32)c1` [Example 29, 3-{7-Chloro-3-[1-(4-chloro-phenyl)-1-phenyl-meth-(E)-ylidene]-5-fluoro-2-oxo-2,3-dihydro-indol-1-ylmethyl}-benzoic acid methyl ester], for which the EC50 was determined as 2360 nM. For the molecule `COC(=O)c1cccc(CN2C(=O)/C(=C(\c3ccccc3)c3cccc(C(F)(F)F)c3)c3ccccc32)c1` [Example 30, 3-{2-Oxo-3-[1-phenyl-1-(3-trifluoromethyl-phenyl)-meth-(E)-ylidene]-2,3-dihydro-indol-1-ylmethyl}-benzoic acid methyl ester], the EC50 was found to be 1650 nM. With `COC(=O)c1cccc(CN2C(=O)/C(=C(\c3ccccc3)c3ccc(S(N)(=O)=O)cc3)c3ccccc32)c1` [Example 31, 3-{2-Oxo-3-[1-phenyl-1-(4-sulfamoyl-phenyl)-meth-(E)-ylidene]-2,3-dihydro-indol-1-ylmethyl}-benzoic acid methyl ester], the EC50 amounted to 770 nM. With `COC(=O)c1cccc(CN2C(=O)/C(=C(\c3ccccc3)c3ccccc3S(C)(=O)=O)c3ccccc32)c1` [Example 32, 3-{3-[1-(2-Methanesulfonyl-phenyl)-1-phenyl-meth-(E)-ylidene]-2-oxo-2,3-dihydro-indol-1-ylmethyl}-benzoic acid methyl ester] the figure was 10500 nM.

On to `COC(=O)c1cccc(CN2C(=O)/C(=C(\c3ccccc3)c3ccsc3)c3ccccc32)c1` [Example 33, 3-{2-Oxo-3-[1-phenyl-1-thiophen-3-yl-meth-(E)-ylidene]-2,3-dihydro-indol-1-ylmethyl}-benzoic acid methyl ester], for which the EC50 turned out to be 5560 nM. Then `COC(=O)c1cccc(CN2C(=O)/C(=C(/c3ccccc3)c3ccc(Cl)cc3)c3ccccc32)c1` [Example 34, 3-{3-[1-(4-Chloro-phenyl)-1-phenyl-meth-(Z)-ylidene]-2-oxo-2,3-dihydro-indol-1-ylmethyl}-benzoic acid methyl ester], with 1800 nM; and `COC(=O)c1cccc(CN2C(=O)/C(=C(\c3ccc(Cl)cc3)c3ccc(C(F)(F)F)cc3)c3ccccc32)c1` [Example 35, 3-{3-[1-(4-Chloro-phenyl)-1-(4-trifluoromethyl-phenyl)-meth-(Z)-ylidene]-2-oxo-2,3-dihydro-indol-1-ylmethyl}-benzoic acid methyl ester], with 2950 nM. With `CCOC(=O)COc1ccc(CN2C(=O)/C(=C(\c3ccccc3)c3ccc(Cl)cc3)c3ccccc32)cc1` [Example 36, (4-{3-[1-(4-Chloro-phenyl)-1-phenyl-meth-(E)-ylidene]-2-oxo-2,3-dihydro-indol-1-ylmethyl}-phenoxy)-acetic acid ethyl ester] the figure was 3690 nM; with `CC(C)NC(=O)c1cccc(CN2C(=O)/C(=C(\c3ccccc3)c3ccc(Cl)cc3)c3ccccc32)c1` [Example 37, 3-{3-[1-(4-Chloro-phenyl)-1-phenyl-meth-(E)-ylidene]-2-oxo-2,3-dihydro-indol-1-ylmethyl}-N-isopropyl-benzamide], 4490 nM. Then `COC(=O)c1ccc(CN2C(=O)/C(=C(\c3ccccc3)c3ccc(Cl)cc3)c3ccccc32)nc1` [Example 38, 6-{3-[1-(4-Chloro-phenyl)-1-phenyl-meth-(E)-ylidene]-2-oxo-2,3-dihydro-indol-1-ylmethyl}-nicotinic acid methyl ester], with 2910 nM; and `CCOC(=O)c1csc(CN2C(=O)/C(=C(\c3ccccc3)c3ccc(Cl)cc3)c3ccccc32)n1` [Example 39, 2-{3-[1-(4-Chloro-phenyl)-1-phenyl-meth-(E)-ylidene]-2-oxo-2,3-dihydro-indol-1-ylmethyl}-thiazole-4-carboxylic acid ethyl ester], with 1570 nM. `O=C1/C(=C(\c2ccccc2)c2ccc(Cl)cc2)c2ccccc2N1Cc1cc(O)c(O)c(O)c1` [Example 41, 3-[1-(4-Chloro-phenyl)-1-phenyl-meth-(E)-ylidene]-1-(3,4,5-trihydroxy-benzyl)-1,3-dihydro-indol-2-one]: the EC50 is 4510 nM. With `O=C1/C(=C(/c2ccccc2)c2ccc(Cl)cc2)c2ccccc2N1Cc1cc(O)c(O)c(O)c1` [Example 42, 3-[1-(4-Chloro-phenyl)-1-phenyl-meth-(Z)-ylidene]-1-(3,4,5-trihydroxy-benzyl)-1,3-dihydro-indol-2-one] the figure was 4500 nM. Then `O=C1/C(=C(\c2ccccc2)c2ccc(Cl)cc2)c2ccccc2N1Cc1ccc(O)cc1` [Example 43, 3-[1-(4-Chloro-phenyl)-1-phenyl-meth-(E)-ylidene]-1-(4-hydroxy-benzyl)-1,3-dihydro-indol-2-one], with 3230 nM; and `O=C(O)c1cccc(CN2C(=O)/C(=C(\c3ccccc3)c3ccc(Cl)cc3)c3ccccc32)c1` [Example 44, 3-{3-[1-(4-Chloro-phenyl)-1-phenyl-meth-(E)-ylidene]-2-oxo-2,3-dihydro-indol-1-ylmethyl}-benzoic acid], with 1210 nM; and `O=C(O)c1cccc(CN2C(=O)/C(=C(\c3ccccc3)c3ccc(F)cc3)c3ccccc32)c1` [Example 45, 3-{3-[1-(4-Fluoro-phenyl)-1-phenyl-meth-(E)-ylidene]-2-oxo-2,3-dihydro-indol-1-ylmethyl}-benzoic acid], with 1890 nM. With `COc1ccc(/C(=C2/C(=O)N(Cc3cccc(C(=O)O)c3)c3ccccc32)c2ccccc2)cc1` [Example 46, 3-{3-[1-(4-Methoxy-phenyl)-1-phenyl-meth-(E)-ylidene]-2-oxo-2,3-dihydro-indol-1-ylmethyl}-benzoic acid] the figure was 4020 nM; with `COc1ccccc1/C(=C1\C(=O)N(Cc2cccc(C(=O)O)c2)c2ccccc21)c1ccc(Cl)cc1` [Example 47, 3-{3-[1-(4-Chloro-phenyl)-1-(2-methoxy-phenyl)-meth-(Z)-ylidene]-2-oxo-2,3-dihydro-indol-1-ylmethyl}-benzoic acid], 2380 nM; with `O=C(O)c1cccc(CN2C(=O)/C(=C(\c3ccccc3)c3ccc(C(F)(F)F)cc3)c3ccccc32)c1` [Example 48, 3-{2-Oxo-3-[1-phenyl-1-(4-trifluoromethyl-phenyl)-meth-(E)-ylidene]-2,3-dihydro-indol-1-ylmethyl}-benzoic acid], 3150 nM. With `O=C(O)c1cccc(CN2C(=O)/C(=C(\c3ccccc3)c3ccccc3OC(F)(F)F)c3ccccc32)c1` [Example 49, 3-{2-Oxo-3-[1-phenyl-1-(2-trifluoromethoxy-phenyl)-meth-(E)-ylidene]-2,3-dihydro-indol-1-ylmethyl}-benzoic acid], the EC50 was found to be 1750 nM. With `O=C(O)c1cccc(CN2C(=O)/C(=C(\c3ccccc3)c3ccc(F)c(Cl)c3)c3ccccc32)c1` [Example 50, 3-{3-[1-(3-Chloro-4-fluoro-phenyl)-1-phenyl-meth-(E)-ylidene]-2-oxo-2,3-dihydro-indol-1-ylmethyl}-benzoic acid] the figure was 5890 nM; with `COc1cc(/C(=C2/C(=O)N(Cc3cccc(C(=O)O)c3)c3ccccc32)c2ccccc2)cc(OC)c1OC` [Example 51, 3-{2-Oxo-3-[1-phenyl-1-(3,4,5-trimethoxy-phenyl)-meth-(E)-ylidene]-2,3-dihydro-indol-1-ylmethyl}-benzoic acid], 1420 nM; with `O=C(O)c1cccc(CN2C(=O)/C(=C(\c3ccccc3)c3cccc(Cl)c3)c3ccccc32)c1` [Example 52, 3-{3-[1-(3-Chloro-phenyl)-1-phenyl-meth-(E)-ylidene]-2-oxo-2,3-dihydro-indol-1-ylmethyl}-benzoic acid], 6550 nM. As to `O=C(O)c1cccc(CN2C(=O)/C(=C(\c3ccccc3)c3ccc(Cl)cc3)c3cc(F)ccc32)c1` [Example 53, 3-{3-[1-(4-Chloro-phenyl)-1-phenyl-meth-(E)-ylidene]-5-fluoro-2-oxo-2,3-dihydro-indol-1-ylmethyl}-benzoic acid], the EC50 was determined as 5890 nM.
